# Tested on: bacterial growth
# Assay: Maximum PFNA experiment, image processing of bacterial growth (FIG. 6)
# Type: cell-based
# Conditions: FIG. 6, images at T=0, 10, 80 hrs
smiles,measurement,value
"O=C(O)C(F)(F)C(F)(F)C(F)(F)C(F)(F)C(F)(F)C(F)(F)C(F)(F)C(F)(F)F [PFNA Solution, Perfluorononanoic acid (PFNA)]",bacterial growth with increasing PFNA concentration,slows bacterial growth

# — patent US20210332408A1, “SYSTEMS AND METHODS FOR OPTIMIZATION OF ENZYMES” (Vader Nanotechnologies Inc., priority 2020, published 2021)
